According to PMC4337798 (Biochimica et biophysica acta, 2010):

Legend:
[1] = biological target: T1, gastric H,K-ATPase (HKα1) (Mus musculus, UniProt Q64436); test: K-ATPase activity dose response in gastric membrane vesicles; format: cell-based; conditions: read-out: % inhibition at 100 μM
[2] = biological target: T1, gastric H,K-ATPase (HKα1); test: as above; format: cell-based

T1 sequence (Q64436 whole entry): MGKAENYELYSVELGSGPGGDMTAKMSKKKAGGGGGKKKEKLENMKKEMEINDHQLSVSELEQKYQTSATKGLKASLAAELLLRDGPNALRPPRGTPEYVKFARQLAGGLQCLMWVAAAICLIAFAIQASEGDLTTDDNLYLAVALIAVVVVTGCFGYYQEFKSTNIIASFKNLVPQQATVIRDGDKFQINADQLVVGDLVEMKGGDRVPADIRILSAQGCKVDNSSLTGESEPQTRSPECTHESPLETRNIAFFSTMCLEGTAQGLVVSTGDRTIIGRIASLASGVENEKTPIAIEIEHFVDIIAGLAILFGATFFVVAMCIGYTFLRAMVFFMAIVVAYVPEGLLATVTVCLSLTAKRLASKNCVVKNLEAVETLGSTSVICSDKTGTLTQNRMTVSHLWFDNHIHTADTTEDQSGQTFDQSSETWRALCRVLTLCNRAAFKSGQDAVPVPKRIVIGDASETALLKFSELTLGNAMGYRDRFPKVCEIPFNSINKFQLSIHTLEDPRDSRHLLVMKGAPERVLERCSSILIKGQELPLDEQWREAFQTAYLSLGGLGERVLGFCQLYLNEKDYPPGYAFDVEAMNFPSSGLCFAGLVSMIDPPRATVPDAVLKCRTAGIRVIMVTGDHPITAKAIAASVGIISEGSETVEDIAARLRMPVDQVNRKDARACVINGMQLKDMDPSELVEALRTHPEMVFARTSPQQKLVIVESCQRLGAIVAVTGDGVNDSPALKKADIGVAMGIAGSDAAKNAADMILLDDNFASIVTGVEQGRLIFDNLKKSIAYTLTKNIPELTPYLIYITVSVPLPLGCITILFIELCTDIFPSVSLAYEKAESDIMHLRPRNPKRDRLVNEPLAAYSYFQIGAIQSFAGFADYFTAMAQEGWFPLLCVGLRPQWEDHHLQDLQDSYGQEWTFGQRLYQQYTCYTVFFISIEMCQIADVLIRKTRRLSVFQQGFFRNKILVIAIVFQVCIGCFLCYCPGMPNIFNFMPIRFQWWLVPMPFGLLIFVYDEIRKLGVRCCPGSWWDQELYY
T1 sequence (P50992 whole entry partner): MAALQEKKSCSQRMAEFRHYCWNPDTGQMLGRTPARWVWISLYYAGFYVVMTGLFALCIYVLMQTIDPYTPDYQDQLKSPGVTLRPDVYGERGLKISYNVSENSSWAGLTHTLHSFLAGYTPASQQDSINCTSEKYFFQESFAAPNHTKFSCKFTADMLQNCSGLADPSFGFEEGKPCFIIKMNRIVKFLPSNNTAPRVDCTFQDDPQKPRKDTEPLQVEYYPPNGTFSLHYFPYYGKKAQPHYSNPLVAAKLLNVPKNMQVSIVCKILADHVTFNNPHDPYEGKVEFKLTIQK

N=C(N)NC(=O)c1nc(Cl)c(N)nc1N [amiloride] showed an inhibition at 100 µM [1] of ~65%.
NC(=NCc1ccccc1)NC(=O)c1nc(Cl)c(N)nc1N [benzamil] was tested, and the “K-ATPase activity dose response in gastric membrane vesicles” value [2] was “Amiloride derivatives benzamil and EIPA had similar inhibitory effects on the gastric K-ATPase activity”.
CCN(c1nc(N)c(C(=O)N=C(N)N)nc1Cl)C(C)C [EIPA, 5-N-ethyl-N-isopropylamiloride] was tested, and the “K-ATPase activity dose response in gastric membrane vesicles” value [2] was “Amiloride derivatives benzamil and EIPA had similar inhibitory effects on the gastric K-ATPase activity”.
